This data set in a line: Oral bioavailability in Sprague-Dawley rat at 30 mg/kg. It counts as ADME, organism-based. As to conditions: in vivo.

What is called bioavailability is dose-corrected exposure relative to a reference, in per cent. `Cc1cn2cc(CC(=O)N3CCC4(CC3)CN(Cc3ccc(-n5nccn5)cc3Cl)C4)nc2s1` displayed a bioavailability of 43%.

The values are drawn from ChEMBL document CHEMBL2046354, “Identification of spirocyclic piperidine-azetidine inverse agonists of the ghrelin receptor” (Bioorg Med Chem Lett, 2012).
